Results reported in ChEMBL document CHEMBL1212758 (Antimicrob Agents Chemother, 2010).

Columns and labels:
[1] = test system: Macacine alphaherpesvirus 1; test: Antiviral activity against Macacine herpesvirus 1 isolate MC1 infected in african green monkey Vero cells by plaque reduction assay; format: functional, organism-based; conditions: Macacine alphaherpesvirus 1, isolate MC1, Vero
[2] = test system: Human alphaherpesvirus 2; test: Antiviral activity against HSV2 infected in african green monkey Vero cells by plaque reduction assay; format: functional, organism-based; conditions: Human alphaherpesvirus 2, Vero
[3] = test system: Human alphaherpesvirus 1; test: Antiviral activity against HSV1 infected in african green monkey Vero cells by plaque reduction assay; format: functional, organism-based; conditions: Human alphaherpesvirus 1, Vero
[4] = test system: Macacine alphaherpesvirus 1; test: Antiviral activity against Macacine herpesvirus 1 infected in rabbits assessed as survival after 5 months; format: functional
[5] = test system: Macacine alphaherpesvirus 1; test: Antiviral activity against Macacine herpesvirus 1 isolate A4 infected in african green monkey Vero cells by plaque reduction assay; format: functional, organism-based; conditions: Macacine alphaherpesvirus 1, isolate A4, Vero
[6] = test system: Macacine alphaherpesvirus 1; test: Antiviral activity against Macacine herpesvirus 1 isolate MR1 infected in african green monkey Vero cells by plaque reduction assay; format: functional, organism-based; conditions: Macacine alphaherpesvirus 1, isolate MR1, Vero
[7] = test system: Macacine alphaherpesvirus 1; test: Antiviral activity against Macacine herpesvirus 1 isolate A1 infected in african green monkey Vero cells by plaque reduction assay; format: functional, organism-based; conditions: Macacine alphaherpesvirus 1, isolate A1, Vero
[8] = test system: Macacine alphaherpesvirus 1; test: Antiviral activity against Macacine herpesvirus 1 isolate MR11 infected in african green monkey Vero cells by plaque reduction assay; format: functional, organism-based; conditions: Macacine alphaherpesvirus 1, isolate MR11, Vero
[9] = test system: Macacine alphaherpesvirus 1; test: Antiviral activity against Macacine herpesvirus 1 isolate MR7 infected in african green monkey Vero cells by plaque reduction assay; format: functional, organism-based; conditions: Macacine alphaherpesvirus 1, isolate MR7, Vero
[10] = test system: Macacine alphaherpesvirus 1; test: Antiviral activity against Macacine herpesvirus 1 isolate MC2 infected in african green monkey Vero cells by plaque reduction assay; format: functional, organism-based; conditions: Macacine alphaherpesvirus 1, isolate MC2, Vero
[11] = test system: Macacine alphaherpesvirus 1; test: Antiviral activity against Macacine herpesvirus 1 isolate A2 infected in african green monkey Vero cells by plaque reduction assay; format: functional, organism-based; conditions: Macacine alphaherpesvirus 1, isolate A2, Vero
[12] = test system: Macacine alphaherpesvirus 1; test: Antiviral activity against Macacine herpesvirus 1 isolate MJ2 infected in african green monkey Vero cells by plaque reduction assay; format: functional, organism-based; conditions: Macacine alphaherpesvirus 1, isolate MJ2, Vero
[13] = test system: Macacine alphaherpesvirus 1; test: Antiviral activity against Macacine herpesvirus 1 isolate A6 infected in african green monkey Vero cells by plaque reduction assay; format: functional, organism-based; conditions: Macacine alphaherpesvirus 1, isolate A6, Vero
[14] = test system: Macacine alphaherpesvirus 1; test: Antiviral activity against Macacine herpesvirus 1 isolate MR4 infected in african green monkey Vero cells by plaque reduction assay; format: functional, organism-based; conditions: Macacine alphaherpesvirus 1, isolate MR4, Vero
[15] = test system: Macacine alphaherpesvirus 1; test: Antiviral activity against Macacine herpesvirus 1 isolate MR6 infected in african green monkey Vero cells by plaque reduction assay; format: functional, organism-based; conditions: Macacine alphaherpesvirus 1, isolate MR6, Vero
[16] = test system: Macacine alphaherpesvirus 1; test: Antiviral activity against Macacine herpesvirus 1 isolate MR5 infected in african green monkey Vero cells by plaque reduction assay; format: functional, organism-based; conditions: Macacine alphaherpesvirus 1, isolate MR5, Vero
[17] = test system: Macacine alphaherpesvirus 1; test: Antiviral activity against Macacine herpesvirus 1 isolate MJ3 infected in african green monkey Vero cells by plaque reduction assay; format: functional, organism-based; conditions: Macacine alphaherpesvirus 1, isolate MJ3, Vero
[18] = test system: Macacine alphaherpesvirus 1; test: Antiviral activity against Macacine herpesvirus 1 isolate MR2 infected in african green monkey Vero cells by plaque reduction assay; format: functional, organism-based; conditions: Macacine alphaherpesvirus 1, isolate MR2, Vero
[19] = test system: Macacine alphaherpesvirus 1; test: Antiviral activity against Macacine herpesvirus 1 isolate MR8 infected in african green monkey Vero cells by plaque reduction assay; format: functional, organism-based; conditions: Macacine alphaherpesvirus 1, isolate MR8, Vero
[20] = test system: Macacine alphaherpesvirus 1; test: Antiviral activity against Macacine herpesvirus 1 isolate MP1 infected in african green monkey Vero cells by plaque reduction assay; format: functional, organism-based; conditions: Macacine alphaherpesvirus 1, isolate MP1, Vero
[21] = test system: Macacine alphaherpesvirus 1; test: Antiviral activity against Macacine herpesvirus 1 isolate A3 infected in african green monkey Vero cells by plaque reduction assay; format: functional, organism-based; conditions: Macacine alphaherpesvirus 1, isolate A3, Vero
[22] = test system: Macacine alphaherpesvirus 1; test: Antiviral activity against Macacine herpesvirus 1 isolate MR10 infected in african green monkey Vero cells by plaque reduction assay; format: functional, organism-based; conditions: Macacine alphaherpesvirus 1, isolate MR10, Vero
[23] = test system: Macacine alphaherpesvirus 1; test: Antiviral activity against Macacine herpesvirus 1 isolate MJ1 infected in african green monkey Vero cells by plaque reduction assay; format: functional, organism-based; conditions: Macacine alphaherpesvirus 1, isolate MJ1, Vero
[24] = test system: Macacine alphaherpesvirus 1; test: Antiviral activity against Macacine herpesvirus 1 isolate A5 infected in african green monkey Vero cells by plaque reduction assay; format: functional, organism-based; conditions: Macacine alphaherpesvirus 1, isolate A5, Vero
[25] = test system: Macacine alphaherpesvirus 1; test: Antiviral activity against Macacine herpesvirus 1 isolate E2490 infected in african green monkey Vero cells by plaque reduction assay; format: functional, organism-based; conditions: Macacine alphaherpesvirus 1, isolate E2490, Vero
[26] = test system: Macacine alphaherpesvirus 1; test: Antiviral activity against Macacine herpesvirus 1 isolate MR9 infected in african green monkey Vero cells by plaque reduction assay; format: functional, organism-based; conditions: Macacine alphaherpesvirus 1, isolate MR9, Vero
[27] = test system: Macacine alphaherpesvirus 1; test: Antiviral activity against Macacine herpesvirus 1 isolate MR3 infected in african green monkey Vero cells by plaque reduction assay; format: functional, organism-based; conditions: Macacine alphaherpesvirus 1, isolate MR3, Vero
[28] = test system: Macacine alphaherpesvirus 1; test: Ratio of acyclovir EC50 to compound EC50 for Macacine herpesvirus 1 isolate MJ1 infected in african green monkey Vero cells; format: functional
[29] = test system: Macacine alphaherpesvirus 1; test: Ratio of acyclovir EC50 to compound EC50 for Macacine herpesvirus 1 isolate MJ2 infected in african green monkey Vero cells; format: functional
[30] = test system: Macacine alphaherpesvirus 1; test: Ratio of acyclovir EC50 to compound EC50 for Macacine herpesvirus 1 isolate A3 infected in african green monkey Vero cells; format: functional
[31] = test system: Macacine alphaherpesvirus 1; test: Ratio of acyclovir EC50 to compound EC50 for Macacine herpesvirus 1 isolate MR5 infected in african green monkey Vero cells; format: functional
[32] = test system: Macacine alphaherpesvirus 1; test: Ratio of acyclovir EC50 to compound EC50 for Macacine herpesvirus 1 isolate A2 infected in african green monkey Vero cells; format: functional
[33] = test system: Macacine alphaherpesvirus 1; test: Ratio of acyclovir EC50 to compound EC50 for Macacine herpesvirus 1 isolate A1 infected in african green monkey Vero cells; format: functional
[34] = test system: Macacine alphaherpesvirus 1; test: Ratio of acyclovir EC50 to compound EC50 for Macacine herpesvirus 1 isolate MP1 infected in african green monkey Vero cells; format: functional
[35] = test system: Macacine alphaherpesvirus 1; test: Ratio of acyclovir EC50 to compound EC50 for Macacine herpesvirus 1 isolate MR6 infected in african green monkey Vero cells; format: functional
[36] = test system: Macacine alphaherpesvirus 1; test: Ratio of acyclovir EC50 to compound EC50 for Macacine herpesvirus 1 isolate MC2 infected in african green monkey Vero cells; format: functional
[37] = test system: Macacine alphaherpesvirus 1; test: Ratio of acyclovir EC50 to compound EC50 for Macacine herpesvirus 1 isolate MR7 infected in african green monkey Vero cells; format: functional
[38] = test system: Macacine alphaherpesvirus 1; test: Ratio of acyclovir EC50 to compound EC50 for Macacine herpesvirus 1 isolate MR10 infected in african green monkey Vero cells; format: functional
[39] = test system: Macacine alphaherpesvirus 1; test: Ratio of acyclovir EC50 to compound EC50 for Macacine herpesvirus 1 isolate MR1 infected in african green monkey Vero cells; format: functional
[40] = test system: Macacine alphaherpesvirus 1; test: Ratio of acyclovir EC50 to compound EC50 for Macacine herpesvirus 1 isolate MR8 infected in african green monkey Vero cells; format: functional
[41] = test system: Macacine alphaherpesvirus 1; test: Ratio of acyclovir EC50 to compound EC50 for Macacine herpesvirus 1 isolate MR4 infected in african green monkey Vero cells; format: functional
[42] = test system: Macacine alphaherpesvirus 1; test: Ratio of acyclovir EC50 to compound EC50 for Macacine herpesvirus 1 isolate MR3 infected in african green monkey Vero cells; format: functional
[43] = test system: Human alphaherpesvirus 1; test: Ratio of acyclovir EC50 to compound EC50 for HSV1 infected in african green monkey Vero cells; format: functional
[44] = test system: Macacine alphaherpesvirus 1; test: Ratio of acyclovir EC50 to compound EC50 for Macacine herpesvirus 1 isolate MR2 infected in african green monkey Vero cells; format: functional
[45] = test system: Macacine alphaherpesvirus 1; test: Ratio of acyclovir EC50 to compound EC50 for Macacine herpesvirus 1 isolate MJ3 infected in african green monkey Vero cells; format: functional
[46] = test system: Macacine alphaherpesvirus 1; test: Ratio of acyclovir EC50 to compound EC50 for Macacine herpesvirus 1 isolate MC1 infected in african green monkey Vero cells; format: functional
[47] = test system: Macacine alphaherpesvirus 1; test: Ratio of acyclovir EC50 to compound EC50 for Macacine herpesvirus 1 isolate MR9 infected in african green monkey Vero cells; format: functional
[48] = test system: Human alphaherpesvirus 2; test: Ratio of acyclovir EC50 to compound EC50 for HSV 2 infected in african green monkey Vero cells; format: functional
[49] = test system: Macacine alphaherpesvirus 1; test: Ratio of acyclovir EC50 to compound EC50 for Macacine herpesvirus 1 isolate MR11 infected in african green monkey Vero cells; format: functional
[50] = test system: Macacine alphaherpesvirus 1; test: Ratio of acyclovir EC50 to compound EC50 for Macacine herpesvirus 1 isolate A6 infected in african green monkey Vero cells; format: functional
[51] = test system: Macacine alphaherpesvirus 1; test: Ratio of acyclovir EC50 to compound EC50 for Macacine herpesvirus 1 isolate E2490 infected in african green monkey Vero cells; format: functional
[52] = test system: Macacine alphaherpesvirus 1; test: Ratio of acyclovir EC50 to compound EC50 for Macacine herpesvirus 1 isolate A5 infected in african green monkey Vero cells; format: functional
[53] = test system: Macacine alphaherpesvirus 1; test: Ratio of acyclovir EC50 to compound EC50 for Macacine herpesvirus 1 isolate A4 infected in african green monkey Vero cells; format: functional

Structure (SMILES): Nc1nc2c(ncn2COC(CO)CO)c(=O)[nH]1 [GANCICLOVIR]
- EC50 [1]: 19.3 µM
- EC50 [2]: 19.3 µM
- EC50 [3]: 19.3 µM
- Activity [4]: 100%

Structure (SMILES): Nc1nc2c(ncn2COCCO)c(=O)[nH]1 [ACYCLOVIR]
- EC50 [5]: 19.3 µM
- EC50 [6]: 19.3 µM
- EC50 [7]: 19.3 µM
- EC50 [8]: 19.3 µM
- EC50 [9]: 19.3 µM
- EC50 [10]: 19.3 µM
- EC50 [1]: 19.3 µM
- EC50 [11]: 19.3 µM
- EC50 [12]: 19.3 µM
- EC50 [13]: 19.3 µM
- EC50 [14]: 19.3 µM
- EC50 [15]: 19.3 µM
- EC50 [16]: 19.3 µM
- EC50 [2]: 19.3 µM
- EC50 [3]: 19.3 µM
- EC50 [17]: 19.3 µM
- Activity [4]: 33%
- EC50 [18]: 19.3 µM
- EC50 [19]: 19.3 µM
- EC50 [20]: 19.3 µM
- EC50 [21]: 19.3 µM
- EC50 [22]: 19.3 µM
- EC50 [23]: 19.3 µM
- EC50 [24]: 19.3 µM
- EC50 [25]: 19.3 µM
- EC50 [26]: 19.3 µM
- EC50 [27]: 19.3 µM

Structure (SMILES): Nc1nc(=O)n([C@@H]2O[C@H](CO)[C@@H](O)[C@@H]2F)cc1Br
- Ratio EC50 [28]: 10
- Ratio EC50 [29]: 10
- Ratio EC50 [30]: 10
- Ratio EC50 [31]: 10
- Ratio EC50 [32]: 10
- Ratio EC50 [33]: 10
- Ratio EC50 [34]: 10
- Ratio EC50 [35]: 10
- Ratio EC50 [36]: 10
- Ratio EC50 [37]: 10
- Ratio EC50 [38]: 10
- Ratio EC50 [39]: 10
- Ratio EC50 [40]: 10
- Ratio EC50 [41]: 10
- Ratio EC50 [42]: 10
- Ratio EC50 [43]: 10
- Ratio EC50 [44]: 10
- Ratio EC50 [45]: 10
- Ratio EC50 [46]: 10
- Ratio EC50 [47]: 10
- Ratio EC50 [48]: 10
- Ratio EC50 [49]: 10
- Ratio EC50 [50]: 10
- Ratio EC50 [51]: 10
- Ratio EC50 [52]: 10
- Ratio EC50 [53]: 10
